Key:
Type in all cases: functional
Design in all cases: concentration or dose not given beside the values
Spodoptera exigua = experiment: Insecticidal activity against Spodoptera exigua assessed as mortality
Zymoseptoria tritici = experiment: Antifungal activity against Zymoseptoria tritici assessed as disease control
Pyricularia oryzae = experiment: Antifungal activity against Magnaporthe oryzae assessed as disease control

Row | SMILES | Activity (Spodoptera exigua) | Activity (Zymoseptoria tritici) | Activity (Pyricularia oryzae)
1 | CC1(c2nnc(-c3ccc(Cl)cc3)o2)CC(c2ccncc2)=NO1 (stereo not drawn) | 0% | 70% | 30%
2 | CC1(c2nnc(-c3ccc(Cl)cc3)o2)CC(c2ccc(Cl)cc2)=NO1 (stereo not drawn) | 17% | 0% | 50%
3 | CC1(c2nnc(Cc3ccccc3)o2)CC(c2ccc([N+](=O)[O-])cc2)=NO1 (stereo not drawn) | 17% | 30% | 30%
4 | Clc1cccc(C2=NOC(c3nnc(-c4ccccc4)o3)C2)c1 (stereo not drawn) | 0% | 0% | 30%
5 | Clc1cccc(Cl)c1C1=NOC(c2nnc(-c3ccccc3)o2)C1 (stereo not drawn) | 17% | 30% | 40%
6 | Fc1ccc(C2=NOC(c3nnc(-c4ccccc4)o3)C2)cc1 (stereo not drawn) | 17% | 0% | 30%
7 | CC1(c2nnc(-c3ccc(Cl)cc3)o2)CC(c2cccc(Cl)c2)=NO1 (stereo not drawn) | 50% | 10% | 50%
8 | CC1(c2nnc(-c3cccc(Cl)c3)o2)CC(c2cccc(Cl)c2)=NO1 (stereo not drawn) | 33% | 0% | 30%
9 | c1ccc(-c2nnc(C3CC(c4ccncc4)=NO3)o2)cc1 (stereo not drawn) | 0% | 0% | 0%
10 | CC1(c2nnc(-c3cccc(Cl)c3)o2)CC(c2ccccc2)=NO1 (stereo not drawn) | 17% | 10% | 40%
11 | CC1(c2nnc(-c3ccc(Cl)cc3)o2)CC(c2ccc([N+](=O)[O-])cc2)=NO1 (stereo not drawn) | 0% | 40% | 30%
12 | CC1(c2nnc(-c3cccc(Cl)c3)o2)CC(c2ccc(Cl)cc2)=NO1 (stereo not drawn) | 50% | 0% | 40%
13 | Clc1ccc(C2=NOC(c3nnc(-c4ccccc4)o3)C2)cc1 (stereo not drawn) | 17% | 0% | 0%
14 | CC1(c2nnc(Cc3ccccc3)o2)CC(c2c(Cl)cccc2Cl)=NO1 (stereo not drawn) | 0% | 0% | 0%
15 | CC1(c2nnc(-c3cccc(Cl)c3)o2)CC(c2ccc(F)cc2)=NO1 (stereo not drawn) | 0% | 10% | 50%
16 | CC1(c2nnc(-c3cccc(Cl)c3)o2)CC(c2c(Cl)cccc2Cl)=NO1 (stereo not drawn) | 50% | 0% | 50%
